According to patent US4401671A, “Treatment of giardiasis and trichomoniasis” (priority 1982, dated 1983):
Converted amounts (≈) assume the structure as drawn. Like-named read-outs stand apart in the source and are kept apart here. Each block holds one molecule with its values, some of them ahead of it.

Columns and labels:
Giardia lamblia [1] = conditions: background statement, human infection; cited from earlier work
[2] = cited from earlier work
T. vaginalis = experiment: anti-T. vaginalis activity; type: cell-based, Trichomonas vaginalis; conditions: as shown in Table 1
Trichomonas foetus = experiment: In vitro anti-Trichomonas foetus activity (growth inhibition, viable cell count); type: cell-based, T. foetus KV1; conditions: for IC50: Tritrichomonas foetus, read-out: Anti-T. foetus ED50
Giardia lamblia [3] = experiment: In vitro anti-Giardia lamblia activity (growth inhibition, viable cell count by hemacytometer); type: cell-based; conditions: Giardia duodenalis, read-out: Anti-G. lamblia ED50
Method: About 1.0-2.0 ml of a nutrient medium, for example, the modified Diamond's TPS medium at pH 7.05, together with about 10% by volume of heat-inactivated serum and about 1% by volume of antibiotic-antimycotic solution is placed in each well of a multiwell plate. To this mixture, an aliquot of a suspension of G. lamblia cells containing about 10^6 organisms is added. Subsequently, each well is inoculated with a known concentration of one of the active compounds. The multiwell plate containing the individual culture samples is incubated under anaerobic conditions at about 37° C. for about 16-24 hrs. The number of viable cells remaining in each well are then counted, such as with a hemacytometer. […]
In each well of a mutliwell plate is placed 1.4 ml of media mix containing Diamond's TPS medium (see Table 2) at pH 7.05, 10% by volume of heat-inactivated fetal bovine serum, and 1% by volume of an antibiotic-antimycotic solution (see Table 3). […] The cells are resuspended in a small volume of the Diamond's medium, counted, and each well inoculated with approximately 10^6 organisms. […] After 24 hours of incubation each well is mixed and counted for viable organisms using a hemacytometer. The percentage of survival is determined by comparing the treated wells to controls treated with dimethylsulfoxide. […]

Compound: CCN(CC)CCCC(C)Nc1c2ccc(Cl)cc2nc2ccc(OC)cc12 (stereo not drawn) [Atabrine]
- treatment of giardiasis (in words) (Giardia lamblia [1]): successfully treated
- adverse side effects (in words) ([2]; in vivo): known to cause adverse side effects

Compound: Cc1ncc([N+](=O)[O-])n1CCO [Flagyl, metronidazole]
- treatment of giardiasis (in words) (Giardia lamblia [1]): successfully treated
- adverse side effects (in words) ([2]; in vivo): known to cause adverse side effects

- IC50 (Trichomonas foetus; effective concentration for 50% inhibition of growth, 37° C., 24 hours, T. foetus KV1): < 1 µg/mL
- IC50 (Giardia lamblia [3]; effective concentration for 50% inhibition of growth, 37° C., anaerobic, about 16-24 hrs (24 hours in Example 1)): 22 µg/mL (≈ 196 µM)
Compound: [O-][n+]1ccnc(O)c1 [emimycin, 2-hydroxypyrazine-4-oxide]
- anti-T. vaginalis activity (in words) (T. vaginalis): active anti-T. vaginalis agents

Compound: O=c1[nH]cc(F)c(=O)[nH]1 [fluorouracil, 5-fluoro-2,4-(1H, 3H)pyrimidenedione]
- anti-T. foetus activity (in words) (Trichomonas foetus; 37° C., 24 hours): effective anti-T. foetus agent
- IC50 (Trichomonas foetus; 24 h): 3 µg/mL (≈ 23.1 µM)
- IC50 (Giardia lamblia [3]): 100 µg/mL (≈ 769 µM)

Compound: O=C1OCCN1N=Cc1ccc([N+](=O)[O-])o1 [furazolidione]
- treatment of giardiasis (in words) (Giardia lamblia [1]): successfully treated
- adverse side effects (in words) ([2]; background statement): known to cause adverse side effects
